Results from patent US20140363530A1, “COMPOSITION COMPRISING THE EXTRACT OF PINE TREE LEAF OR THE COMPOUNDS ISOLATED THEREFROM FOR THE PREVENTION AND TREATMENT OF CANCER DISEASE BY INHIBITING HPV VIRUS AND THE USES THEREBY” (priority 2012, published 2014).
≈ marks a conversion by molar mass, not a printed value.

Tests used:
HPV16 PVs [1] = test: Virus inhibition test (in vitro), SEAP activity of 293TT cells infected with HPV pseudovirion; format: cell-based; settings: Human papillomavirus 16, read-out: inhibitory activity from HPV16 PVs
Protocol: Prior to in vitro antiviral assay, 5×10^3 of 293TT cell was seeded on 96-well plate and incubated at 37° C. for 16 hours in 5% CO2 atmosphere. The culture media was removed and each extract was diluted to the concentration of 100 μg/ml or 50 μg/ml to distribute into each cell at the dose of 100 μl/cell. After treating with the extract for 16 hours, the culture media was removed and the cell was washed with PBS twice. The cell was infected by 106RLU/ml of HPV PVs at the dose of 100 μl/cell and incubated for 48 hours at 37° C. in 5% CO2 atmosphere. To determine the viral activity, the supernatant of the cell culture was used for determine the activity of secreted alkaline phosphatase (SEAP) using by Great EscAPE™ SEAP Chemiluminescence Kit (631738, Clontech, CA, USA). To determine the SEAP activity, relative light units (RLU) value was obtained using by Luminescence coulter (Micro beta triLux 1450, PerkinElmer, CT, USA) and the RLU values of the cell treated with the extract and untreated with the extract, were compared with each other. The decrease of SEAP activity was regarded as the inhibition effect against HPV PVs.
To determine the inhibitory effect on luciferase-comprising HPV virus contagion of the test samples prepared in Examples, following test was performed according to the method disclosed in the literature (Shaneyfelt et al., Virology Journal, 3:68, 2006, 1-11; Roden et al., J. Virol., 70, 1996, 5875-5883; Unckell et al., J. Virol., 71, 1997, 2934-2939; Touze et al., Nucleic Acids Research, 26, 1998, 1317-1323; Selinka et al., J. Virol., 77, 2003, 12961-12967; Klasse et al., Journal of General Virology, 83, 2002, 2091-2108)
5×10^3293TT cell was seeded on 96-well plate and incubate for 16 hours. 50 μg of test sample was mixed with the culture media in the concentration of 100 ug/ml and incubated for 16 hours. The media was washed with 100 μl of PBS twice and the cell was infected with 10^6RLU/ml of HPV pseudovirion at the dose of 100 μl/cell to incubate at 37° C., for 48 hours in 5% CO2 atmosphere.
5× lysis buffer in Great EscAPE™ SEAP Chemiluminescence Kit (631738, Clontech, CA, USA) was made to 1× and both of 45 μl of 1× lysis buffer and 15 μl of cell culture medium were added to 96-well plate (3912, Costar, NY, USA). 60 μl of the substrate in Great EscAPE™ SEAP Chemiluminescence kit was added thereto and the relative light units (RLU) value was obtained using by Luminescence coulter (Micro beta triLux 1450, PerkinElmer, CT, USA). The RLU values of the cell treated with the extract and untreated with the extract, were compared with each other and the decrease of SEAP activity was regarded as the inhibition effect against HPV PVs.

[2] = test system: A-549 (human adenocarcinoma of lung); test: SRB cytotoxicity test, A-549; format: cell-based; settings: Homo sapiens, A549; Table 3, 48 hours; read-out: Cytotoxicity IC50, A-549
Protocol: (§1) To determine the cytotoxicity against human tumor cell line of the test samples prepared in Examples, following sulforhodamin B (SRB) bioassy test was performed according to the method disclosed in the literature (Skehan, P., et al., J. Natl. Cancer Inst., 82, 1990, 1107-1112).
(§2) Various human tumor cell lines, i.e., A-549 (human adenocarcinoma of lung, NCI), SK-OV-3 (human ovarian tumor, NCI), SK-MEL-2 (human malignant melanoma, NCI), HCT15 (human colon adenocarcinoma, NCI), MES-SA (human uterine carcinoma, NCI) and MES-SA/DX5 (multidrug resistant carcinoma subline of MES-SA, NCI) were used in the test.
(§3) The subcultured cell lines were detached from the surface of wall using by trypsin-EDTA solution and adjusted to various concentration of cell lines, i.e., 5×10^3 cells/well (A-549, HCT15), 1×10^4 cells/well (SK-MEL-2), 5×10^3 cells/well (SK-OV-3) in 96-well flat bottom microplate. The inoculated cell lines were incubated in CO2 incubator (MCO-20AIC, SANYO Electric Co., LTd.) to be attached on the bottom of incubator and the culture media was removed with aspirator. 6 logarithmic concentrations of the diluted test samples were added to each well containing cell line at 100 μl/well in a three fold dilution manner and the cell was incubated for 48 hours. The culture media in each well was removed and 100μ of 10% trichloroacetic acid was added thereto to be left alone at 4° C. for 1 hour and to fix the cells to the bottom of the plates. […] The cell plates were shaked with titer plate shaker (KOMA Orbital Shaker KE011, KOMABIOTech) for 10 mins to exude the staining solution and to determine the absorbance at 520 nm using by microplate spectrophotometer (Sunrise, TECAN).

[3] = test system: SK-OV-3 (human ovarian tumor); test: SRB cytotoxicity test, SK-OV-3; format: cell-based; settings: Homo sapiens, SK-OV-3; Table 3, 48 hours; read-out: Cytotoxicity IC50, SK-OV-3
Protocol: as §1, §2, §3

[4] = test system: SK-MEL-2 (human malignant melanoma); test: SRB cytotoxicity test, SK-MEL-2; format: cell-based; settings: Homo sapiens, SK-MEL-2; Table 3, 48 hours; read-out: Cytotoxicity IC50, SK-MEL-2
Protocol: as §1, §2, §3

[5] = test system: HCT15 (human colon adenocarcinoma); test: SRB cytotoxicity test, HCT15; format: cell-based; settings: Homo sapiens, HCT-15, 48 h, Table 3, 48 hours; read-out: Cytotoxicity IC50, HCT15
Protocol: as §1, §2, §3

[6] = test system: MES-SA (human uterine carcinoma); test: SRB cytotoxicity test, MES-SA; format: cell-based; settings: Homo sapiens, MES-SA, 48 h, Table 3, 48 hours; read-out: Cytotoxicity IC50, MES-SA
Protocol: as §1, §2, §3

[7] = test system: MES-SA/DX5 (multidrug resistant carcinoma subline of MES-SA); test: SRB cytotoxicity test, MES-SA/DX5; format: cell-based, human; settings: Homo sapiens, MES-SA/Dx5, 48 h, read-out: Cytotoxicity IC50, MES-SA/DX5
Protocol: as §1, §2, §3

HPV16 PVs [8] = test: Virus inhibition test (in vitro), SEAP activity of 293TT cells infected with HPV pseudovirion; format: cell-based; settings: Human papillomavirus 16, read-out: inhibitory activity on HPV16 PVs

C=C[C@]1(C)C=C2CC[C@@H]3[C@](C)(CCC[C@@]3(C)C(=O)O)[C@H]2CC1 [compound (j), sandaracopimaric acid]
inhibition at 50 µg/mL (HPV16 PVs [1]): 70 to 80% | IC50 [2]: 13.6 µg/mL (≈ 45.1 µM) | IC50 [3]: 12.1 µg/mL (≈ 40.1 µM) | IC50 [4]: 11.2 µg/mL (≈ 36.9 µM) | IC50 [5]: 13.6 µg/mL (≈ 44.9 µM) | IC50 [6]: 10.4 µg/mL (≈ 34.6 µM) | IC50 [7]: 11.1 µg/mL (≈ 36.6 µM) | inhibition at 5 µg/mL (HPV16 PVs [8]): ~50%
